Test results from paper PMC6270338, “Diterpenylquinone Hybrids: Synthesis and Assessment of Gastroprotective Mechanisms of Action in Human Cells” (Molecules, 2013).

Legend:
[1] = tested on: HCl-EtOH-induced gastric lesions; parameters: method as in PMID 21996716; details: mice, orally, single dose of 5 mg/kg; cited from earlier work
[2] = tested on: AGS cells; assay: Cellular reduced glutathione (GSH) content of AGS cells; type: cell-based, human; details: 4 h; for GSH: post-confluent AGS, control 13.6 ± 0.7
Procedure: Untreated cells were used as controls. […] After incubation, the GSH content was determined using a colorimetric kit (BioAssays Systems, Hayward, CA, USA). Results are expressed as nanomol of soluble reduced sulfhydryls/10^6 cells.

[3] = Cytotoxicity, neutral red uptake assay, AGS; type: cell-based; details: human, AGS gastric epithelial cells, confluent monolayer, read-out: IC50 ± SD, cytotoxicity AGS
Procedure: (§1) Human lung fibroblasts MRC-5 (ATCC CCL-171) were grown in minimum essential Eagle medium (MEM) with Earles’s salts and 2 mM L-glutamine (Sigma-Aldrich Co.). Human epithelial gastric cells AGS (ATCC CRL-1739) were grown in Ham F-12 medium containing 1 mM L-glutamine. Both media were supplemented with 1.5 g/L sodium bicarbonate (Sigma-Aldrich Co.), 10% heat-inactivated fetal bovine serum (FBS), 100 IU/mL penicillin and 100 µg/mL streptomycin.Both cell lines were grown as monolayers in a humidified incubator with 5% CO2 in air at 37 °C. Culture media, antibiotics and FBS were obtained from Invitrogen Corp.
(§2) Cytotoxicity values were required as a reference to determine the working concentrations in the subsequent experiments. Briefly, confluent cultures of MRC-5 and AGS cells were treated during 24 h with medium containing the compounds at concentrations ranging from 0 up to 1,000 µM. The products were first dissolved in DMSO (1% final concentration) and then in the corresponding culture medium supplemented with 2% FBS. Untreated cells were used as controls. Cell viability was determined at the end of the incubation by means of the neutral red uptake (NRU) assay. Lansoprazole (Sigma-Aldrich Co., min. 98% by TLC) was used as reference compound.

[4] = tested on: AGS cells; assay: Prostaglandin E2 (PGE2) content of AGS cells; type: cell-based, human; details: 1 h; for PGE2: post-confluent AGS, control 52 ± 5
Procedure: One day after confluence, AGS cells were treated for 1 h with the compounds at 1/2 and 1/4 of the respective IC50 values. A control with medium only was included. Indomethacin (100 μM) was used as standard inhibitor of prostaglandin synthesis (Sigma-Aldrich Co., min. 99% by TLC). After incubation, PGE2 content was determined by means of a specific enzyme immunoassay kit (R & D Systems KGE004B, Minneapolis, MN, USA) and values were calculated according to the manufacturer instructions. Results are expressed as pg/well.

[5] = Cytotoxicity, neutral red uptake assay, MRC-5; type: cell-based; details: human, MRC-5 lung fibroblasts, confluent monolayer, confluent MRC-5, 24 h, read-out: IC50 ± SD, cytotoxicity MRC-5
Procedure: as §1, §2

[6] = tested on: human erythrocyte membranes; assay: Inhibition of lipoperoxidation in erythrocyte membranes; type: biochemical
[7] = tested on: human erythrocyte membranes; assay: as above; type: biochemical; details: at 100 µg/mL
Procedure: The inhibition of lipid peroxidation was determined using human erythrocyte membranes. The compounds were tested at 100 µg/mL.

[8] = tested on: MRC-5 fibroblasts; assay: MRC-5 fibroblast proliferation assay; type: cell-based, human; details: MRC-5, 4 days, concentrations 1/64 to 1/2 of IC50
Procedure: Untreated cells were used as controls. Cell viability was determined at the end of the incubation by means of the NRU assay.

[9] = tested on: AGS cells; assay: Sodium taurocholate (NaT)-induced damage to AGS cells; type: cell-based, human; details: 60 min pre-treatment, then 10 mM NaT 30 min
Procedure: The effect of sodium taurocholate (NaT) on cell viability was determined according to [15]. […] Then, 10 mM NaT was added to all wells for 30 min. Untreated cells were used as controls. […] After incubation, the NRU assay was carried out.

[10] = Homo sapiens, AGS, 250 µM, read-out: increase in PGE2 content

For `C=C1CCC2[C@](C)(CCC[C@]2(C)C(=O)OC)[C@H]1CC[C@@H](C)CC(=O)OC1=C(CC=C(C)C)C(=O)c2ccccc2C1=O` (stereo partly shown) [Compound 8, Lapachoyl junicedrate methyl ester], the “gastroprotective effect in vivo” value [1] is listed as “active”, the activation at 125 µM ([2]; Homo sapiens, AGS, 125 µM, read-out: increase of GSH content compared to untreated controls) is listed as 19% and the activation at 250 µM ([2]; Homo sapiens, AGS, 250 µM, read-out: increase of GSH content compared to untreated controls) is listed as 24%. For the same compound, the GSH ([2]; 125 µM) was “* 16.2 ± 0.6 nmol/10^6 cells”, the GSH ([2]; 250 µM) was “* 16.8 ± 0.9 nmol/10^6 cells” and the IC50 at 24 h [3] was over 1000 µM. The fold induction at 250 µM [4, 10] was 5.2, the fold induction at 500 µM ([4]; Homo sapiens, AGS, 500 µM, read-out: increase in PGE2 content) was 15.2 and the PGE2 ([4]; 250 µM) was 272 ± 30 pg/mL. The PGE2 ([4]; 500 µM) was 787 ± 56 pg/mL, the IC50 at 24 h [5] was over 1000 µM and the “IC50, inhibition of the lipoperoxidation” value [6] was “IC50 81.4 ± 11.0 µg/mL”.
In the case of `C=C1CCC2[C@](C)(CCC[C@]2(C)C(=O)O)[C@H]1CC[C@@H](C)CC(=O)OC1=C(CCC(C)C)C(=O)c2ccccc2C1=O` (stereo partly shown) [Compound 9, Dihydroprenyl lapachol junicedrate], the “gastroprotective effect in vivo” value [1] is listed as “significant activity”, the activation at 6 µM ([2]; Homo sapiens, AGS, 6 µM, read-out: increase of GSH content compared to untreated controls) is listed as 15% and the activation at 12 µM ([2]; Homo sapiens, AGS, 12 µM, read-out: increase of GSH content compared to untreated controls) is listed as 16%. The GSH ([2]; 6 µM) was “* 15.6 ± 0.6 nmol/10^6 cells”, the GSH ([2]; 12 µM) was “* 15.8 ± 0.6 nmol/10^6 cells” and the IC50 at 24 h [3] was 49 ± 10 µM. It also gave a fold induction at 12.5 µM ([4]; Homo sapiens, AGS, 12.5 µM, read-out: increase in PGE2 content) of 5.9, a PGE2 ([4]; 12.5 µM) of 309 ± 29 pg/mL and an IC50 at 24 h [5] of 449 ± 27 µM. The “IC50, inhibition of the lipoperoxidation” value [6] was “IC50 40.1 ± 5.3 µg/mL”.
For `C=C1CCC2[C@](C)(CCC[C@]2(C)C(=O)OC)[C@H]1CC[C@@H](C)CC(=O)OC1=C(CCC(C)C)C(=O)c2ccccc2C1=O` (stereo partly shown) [Compound 10, Dihydroprenyl lapachoyl junicedrate methyl ester], the “gastroprotective effect in vivo” value [1] is given as “significant activity”, the GSH ([2]; 83 µM) is given as 13.4 ± 0.7 nmol/10^6 cells and the GSH ([2]; 165 µM) is given as 13.0 ± 0.7 nmol/10^6 cells. For the same compound, the IC50 at 24 h [3] was 659 ± 42 µM, the fold induction at 162 µM ([4]; Homo sapiens, AGS, 162 µM, read-out: increase in PGE2 content) was 5.9 and the fold induction at 323 µM ([4]; Homo sapiens, AGS, 323 µM, read-out: increase in PGE2 content) was 8.9. For the same compound, the PGE2 ([4]; 162 µM) was 306 ± 32 pg/mL, the PGE2 ([4]; 323 µM) was 465 ± 39 pg/mL and the IC50 at 24 h [5] was over 1000 µM. For the same compound, the “IC50, inhibition of the lipoperoxidation” value [6] was “IC50 99.4 ± 9.1 µg/mL”.
For `COC(=O)[C@@]1(C)CCC[C@@]2(C)C1CC[C@H](C)[C@@H]2CC[C@@H](C)CC(=O)OC1=C(CC=C(C)C)C(=O)C2=C(CCCC2)C1=O` (stereo partly drawn) [Compound 18, Dihydroprenyl-5,6,7,8-tetrahydrolapachoyl 17β-dihydrojunicedrate methyl ester], the activation at 111 µM ([2]; Homo sapiens, AGS, 111 µM, read-out: increase of GSH content compared to untreated controls) was 26%, the activation at 221 µM ([2]; Homo sapiens, AGS, 221 µM, read-out: increase of GSH content compared to untreated controls) was 26% and the GSH ([2]; 111 µM) was “* 17.1 ± 1.1 nmol/10^6 cells”. For the same compound, the GSH ([2]; 221 µM) was “* 17.2 ± 1.0 nmol/10^6 cells”, the IC50 at 24 h [3] was 884 ± 62 µM and the “% Inhibition of the lipoperoxidation” value [7] was 28%. For the same compound, the fold induction at 111 µM ([4]; Homo sapiens, AGS, 111 µM, read-out: increase in PGE2 content) was 2.4, the fold induction at 221 µM ([4]; Homo sapiens, AGS, 221 µM, read-out: increase in PGE2 content) was 3 and the PGE2 ([4]; 111 µM) was 123 ± 9 pg/mL. The PGE2 ([4]; 221 µM) was 156 ± 13 pg/mL, the “Percentual proliferative increase compared to untreated cells” value [8] was 3.6% and the IC50 at 24 h [5] was 369 ± 29 µM.
For `COC(=O)[C@@]1(C)CCC[C@]2(C)C(CC[C@@H](C)CC(=O)OC3=C(CC=C(C)C)C(=O)c4ccccc4C3=O)=C(C)CCC12` (stereo partly shown) [Compound 20, Lapachoyl Δ8(9) junicedrate methyl ester], the “gastroprotective effect in vivo” value [1] is given as “active”, the activation at 40 µM ([2]; Homo sapiens, AGS, 40 µM, read-out: increase of GSH content compared to untreated controls) is given as 19% and the activation at 80 µM ([2]; Homo sapiens, AGS, 80 µM, read-out: increase of GSH content compared to untreated controls) is given as 13%. For the same compound, the GSH ([2]; 40 µM) was “* 16.2 ± 1.0 nmol/10^6 cells”, the GSH ([2]; 80 µM) was “* 15.4 ± 1.3 nmol/10^6 cells” and the IC50 at 24 h [3] was 321 ± 24 µM. The IC50 at 24 h [5] was 483 ± 31 µM and the “IC50, inhibition of the lipoperoxidation” value [6] was “IC50 58.1 ± 4.1 µg/mL”.
In the case of `CC1=C(CC[C@@H](C)CC(=O)OC2=C(CCC(C)C)C(=O)c3ccccc3C2=O)[C@@]2(C)CCC[C@](C)(C(=O)O)C2CC1` (stereo partly shown) [Compound 21, Dihydroprenyl lapachoyl Δ8(9) junicedrate], the “gastroprotective effect in vivo” value [1] is given as “significant activity”, the activation at 70 µM ([2]; Homo sapiens, AGS, 70 µM, read-out: increase of GSH content compared to untreated controls) is given as 33% and the GSH ([2]; 35 µM) is given as 13.3 ± 0.7 nmol/10^6 cells. The GSH ([2]; 70 µM) was “* 18.1 ± 1.1 nmol/10^6 cells”, the IC50 at 24 h [3] was 278 ± 14 µM and the fold induction at 85 µM ([4]; Homo sapiens, AGS, 85 µM, read-out: increase in PGE2 content) was 3.1. For the same compound, the PGE2 ([4]; 85 µM) was 162 ± 18 pg/mL, the IC50 at 24 h [5] was 601 ± 26 µM and the “reduction in cell viability, NaT-induced damage” value (shortened to “reduction in cell viability”) ([9]; 35 µM) was 25%. The “reduction in cell viability” value ([9]; 70 µM) was 27% and the “reduction in cell viability” value ([9]; 139 µM) was 30%.
For `COC(=O)[C@@]1(C)CCC[C@]2(C)C(CC[C@@H](C)CC(=O)OC3=C(CCC(C)C)C(=O)c4ccccc4C3=O)=C(C)CCC12` (stereo partly shown) [Compound 22, Dihydroprenyl lapachoyl Δ8(9) junicedrate methyl ester], the “gastroprotective effect in vivo” value [1] is listed as “significant activity”, the GSH ([2]; 43 µM) is listed as 13.6 ± 0.9 nmol/10^6 cells and the GSH ([2]; 85 µM) is listed as 14.2 ± 0.6 nmol/10^6 cells. For the same compound, the IC50 at 24 h [3] was 340 ± 20 µM, the “% Inhibition of the lipoperoxidation” value [7] was 46% and the fold induction at 170 µM ([4]; Homo sapiens, AGS, 170 µM, read-out: increase in PGE2 content) was 2.2. It also gave a PGE2 ([4]; 170 µM) of 114 ± 11 pg/mL and an IC50 at 24 h [5] of 848 ± 51 µM.
In the case of `COC(=O)[C@@]1(C)CCC[C@]2(C)C(CC[C@@H](C)CC(=O)OC3=C(CCC(C)C)C(=O)C4=C(CCCC4)C3=O)=C(C)CCC12` (stereo partly shown) [Compound 24, Dihydroprenyl-5,6,7,8-tetrahydrolapachoyl Δ8(9) junicedrate methyl ester], the GSH ([2]; 125 µM) is reported as “* 18.7 ± 1.0 nmol/10^6 cells”, the GSH ([2]; 250 µM) is reported as “* 18.0 ± 0.9 nmol/10^6 cells” and the IC50 at 24 h [3] is reported as over 1000 µM. The “% Inhibition of the lipoperoxidation” value [7] was 27%, the fold induction at 250 µM [4, 10] was 2.4 and the PGE2 ([4]; 250 µM) was 123 ± 12 pg/mL. The “Stimulation of fibroblast proliferation” value [8] was “inactive” and the IC50 at 24 h [5] was over 1000 µM.
